What follows are compounds tested against T1, rat CB2 receptor (rCB2) (Rattus norvegicus, UniProt Q9QZN9).
T1 sequence (Q9QZN9 1-360): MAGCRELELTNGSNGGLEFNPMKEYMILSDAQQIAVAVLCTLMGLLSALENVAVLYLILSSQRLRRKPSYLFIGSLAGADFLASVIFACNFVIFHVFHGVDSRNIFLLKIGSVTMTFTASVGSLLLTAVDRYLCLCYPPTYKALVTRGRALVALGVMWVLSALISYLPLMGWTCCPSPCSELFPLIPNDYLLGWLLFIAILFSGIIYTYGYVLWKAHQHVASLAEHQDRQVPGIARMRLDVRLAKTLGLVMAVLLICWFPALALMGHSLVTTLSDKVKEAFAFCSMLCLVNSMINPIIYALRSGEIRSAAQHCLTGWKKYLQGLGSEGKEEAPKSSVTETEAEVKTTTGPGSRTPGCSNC

| Structure (SMILES) | EC50 |
| --- | --- |
| CNC(=O)[C@@H](NC(=O)c1nc(-c2ccccc2)n2c1CN(S(=O)(=O)c1ccc(Cl)cc1)CC2)C(C)(C)C [Compound 106, (S)-7-(4-chlorophenylsulfonyl)-N-(3,3-dimethyl-1-(methylamino)-1-oxobutan-2-yl)-3-phenyl-5,6,7,8-tetrahydroimidazo[1,5-a]pyrazine-1-carboxamide] | 10 to 100 nM |
| CNC(=O)[C@@H](NC(=O)c1nc(-c2ccc(Cl)cc2)n2c1CN(C)CC2)C(C)(C)C [Compound 49, (S)-3-(4-chlorophenyl)-N-(3,3-dimethyl-1-(methylamino)-1-oxobutan-2-yl)-7-methyl-5,6,7,8-tetrahydroimidazo[1,5-a]pyrazine-1-carboxamide] | 10 to 100 nM |
| CC12CCC(C1)C(C)(C)C2NC(=O)c1nc(-c2ccccc2)n2c1CN(C(=O)C1CC1)CC2 (stereo not shown) [Compound 119, 7-(cyclopropanecarbonyl)-3-phenyl-N-(1,3,3-trimethyl-bicyclo[2.2.1]heptan-2-yl)-5,6,7,8-tetrahydroimidazo[1,5-a]pyrazine-1-carboxamide] | 10 to 100 nM |
| CC(C)CN1CCn2c(-c3ccccc3)nc(C(=O)N[C@H](C)C(C)(C)C)c2C1 [Compound 52, (R)-N-(3,3-dimethylbutan-2-yl)-7-isobutyl-3-phenyl-5,6,7,8-tetrahydrimidazo[1,5-a]pyrazine-1-carboxamide] | 0.1 to 10 nM |
| CC(C)(C)OC(=O)N1CCn2c(-c3ccccc3)nc(C(=O)NC3CCCCC3)c2C1 [Compound 36, tert-butyl 1-(cyclohexylcarbamoyl)-3-phenyl-5,6-dihydroimidazo[1,5-a]pyrazine-7(8H)-carboxylate] | 10 to 100 nM |
| C[C@@H](NC(=O)c1nc(-c2ccccc2)n2c1CN(C(=O)C1CCOC1)CC2)C1CCCCC1 (stereo partly drawn) [Compound 139, N-((R)-1-cyclohexylethyl)-3-phenyl-7-(tetrahydrofuran-3-carbonyl)-5,6,7,8-tetrahydroimidazo[1,5-a]pyrazine-1-carboxamide] | 10 to 100 nM |
| CC(C)CN1CCn2c(-c3ccccc3)nc(C(=O)N[C@@H](CO)C(C)(C)C)c2C1 [Compound 68, (R)-N-(1-hydroxy-3,3-dimethylbutan-2-yl)-7-isobutyl-3-phenyl-5,6,7,8-tetrahydroimidazo[1,5-a]pyrazine-1-carboxamide] | 0.1 to 10 nM |
| CCS(=O)(=O)N1CCn2c(-c3ccccc3)nc(C(=O)NC3C4(C)CCC(C4)C3(C)C)c2C1 (stereo not shown) [Compound 112, 7-(ethylsulfonyl)-3-phenyl-N-(1,3,3-trimethylbicyclo[2.2.1]heptan-2-yl)-5,6,7,8-tetrahydroimidazo[1,5-a]pyrazine-1-carboxamide] | 10 to 100 nM |
| CNC(=O)[C@@H](NC(=O)c1nc(CCCC2CCCC2)n2c1CN(C)CCC2)C(C)(C)C [Compound 494, (S)-3-(3-cyclopentylpropyl)-N-(3,3-dimethyl-1-(methylamino)-1-oxobutan-2-yl)-8-methyl-6,7,8,9-tetrahydro-5H-imidazo[1,5-a][1,4]diazepine-1-carboxamide] | 10 to 100 nM |
| CNC(=O)[C@@H](NC(=O)c1nc(-c2ccc(Cl)cc2F)n2c1CN(C(=O)OC(C)(C)C)CCC2)C(C)(C)C [Compound 313] | 10 to 100 nM |
| CNC(=O)[C@@H](NC(=O)c1nc(-c2ccccc2)n2c1CN(C(C)C)CC2)C(C)(C)C [Compound 85, (S)-N-(3,3-dimethyl-1-(methylamino)-1-oxobutan-2-yl)-7-isopropyl-3-phenyl-5,6,7,8-tetrahydroimidazo[1,5-a]pyrazine-1-carboxamide] | 10 to 100 nM |
| CNC(=O)[C@H](CC(C)C)NC(=O)c1nc(-c2ccc(Cl)cc2F)n2c1CN(C)CC2 [Compound 276, (S)-3-(4-chloro-2-fluorophenyl)-7-methyl-N-(4-methyl-1-(methylamino)-1-oxopentan-2-yl)-5,6,7,8-tetrahydroimidazo[1,5-a]pyrazine-1-carboxamide] | 10 to 100 nM |
| CNC(=O)[C@@H](NC(=O)c1nc(-c2ccccc2)n2c1CN(Cc1cccn1C)CC2)C(C)(C)C [Compound 71, (S)-N-(3,3-dimethyl-1-(methylamino)-1-oxobutan-2-yl)-7-((1-methyl-1H-pyrrol-2-yl)methyl)-3-phenyl-5,6,7,8-tetrahydroimidazo[1,5-a]pyrazine-1-carboxamide] | 10 to 100 nM |
| CNC(=O)[C@@H](NC(=O)c1nc(-c2cc(C(F)(F)F)ccc2F)n2c1CN(C)CC2)C(C)(C)C [Compound 245, (S)-N-(3,3-dimethyl-1-(methylamino)-1-oxobutan-2-yl)-3-(2-fluoro-5-(trifluoromethyl)phenyl)-7-methyl-5,6,7,8-tetrahydroimidazo[1,5-a]pyrazine-1-carboxamide] | 10 to 100 nM |
| Cc1ccc(-c2nc(C(=O)N[C@H](c3nc(C)no3)C(C)(C)C)c3n2CCCNC3)c(F)c1 [Compound 520, (S)-N-(2,2-dimethyl-1-(3-methyl-1,2,4-oxadiazol-5-yl)propyl)-3-(2-fluoro-4-methylphenyl)-6,7,8,9-tetrahydro-5H-imidazo[1,5-a][1,4]diazepine-1-carboxamide] | 10 to 100 nM |
| C[C@@H](NC(=O)c1nc(-c2ccccc2)n2c1CN(C(=O)C(C)(C)C)CC2)C1CCCCC1 [Compound 133, (R)-N-(1-cyclohexylethyl)-3-phenyl-7-pivaloyl-5,6,7,8-tetrahydroimidazo[1,5-a]pyrazine-1-carboxamide] | 10 to 100 nM |
| CC(C)CN1CCn2c(-c3ccccc3)nc(C(=O)NN3CCCCC3)c2C1 [Compound 155, 7-isobutyl-3-phenyl-N-(piperidin-1-yl)-5,6,7,8-tetrahydroimidazo[1,5-a]pyrazine-1-carboxamide] | 0.1 to 10 nM |
| CC(C)(C)C(=O)N1CCn2c(-c3ccccc3)nc(C(=O)NC3C4(C)CCC(C4)C3(C)C)c2C1 (stereo not shown) [Compound 123, 3-phenyl-7-pivaolyl-N-(1,3,3-trimethylbicyclo[2.2.1]heptan-2-yl)-5,6,7,8-tetrahydroimidazo[1,5-a]pyrazine-1-carboxamide] | 10 to 100 nM |
| CC(C)(C)OC(=O)N1CCn2c(-c3ccc(Cl)cc3)nc(C(=O)N[C@H](CO)C(C)(C)C)c2C1 (stereo in doubt) [Compound 34, tert-butyl 3-(4-chlorophenyl)-1-(1-hydroxy-3,3-dimethylbutan-2-ylcarbamoyl)-5,6-dihydroimidazo[1,5-a]pyrazine-7(8H)-carboxylate] | 10 to 100 nM |
| CCCN1CCn2c(-c3ccccc3)nc(C(=O)Nc3ccccc3)c2C1 [Compound 154, N,3-diphenyl-7-propyl-5,6,7,8-tetrahydroimidazo[1,5-a]pyrazine-1-carboxamide] | 10 to 100 nM |
| CC(C)(C)c1noc([C@@H](NC(=O)c2nc(-c3ccccc3)n3c2CN(C2CC2)CC3)C(C)(C)C)n1 [Compound 284, (S)-N-(1-(3-tert-butyl-1,2,4-oxadiazol-5-yl)-2,2-dimethylpropyl)-7-cyclopropyl-3-phenyl-5,6,7,8-tetrahydroimidazo[1,5-a]pyrazine-1-carboxamide] | 0.1 to 10 nM |
| Cc1nnc([C@@H](NC(=O)c2nc(-c3ccccc3)n3c2CN(CC(C)C)CC3)C(C)(C)C)o1 [Compound 202, (S)-N-(2,2-dimethyl-1-(5-methyl-1,3,4-oxadiazol-2-yl)propyl)-7-isobutyl-3-phenyl-5,6,7,8-tetrahydroimidazo[1,5-a]pyrazine-1-carboxamide] | 10 to 100 nM |

From US8431565B2 (priority 2007, dated 2013)
